In patent US20250230138A1, “COMPOUNDS HAVING A T-STRUCTURE FORMED BY AT LEAST FOUR CYCLES FOR USE IN THE TREATMENT OF CANCER AND OTHER INDICATIONS” (TheRas, Inc., priority 2022, published 2025):
Read-outs that look alike come from different tables or passages of the source.

What was measured:
[1] = target: Cys242 in human PIK3CA (157-299) (Homo sapiens (Human), UniProt P42336); assay: Covalent modification assay using MALDI-TOF MS; format: biochemical; details: 4 h reaction time point
In short: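 PIK3CA (157-299) at 3.33 μM or 1 μM in 20 mM HEPES, 150 mM NaCl, 2 mM MgCl2, pH 7.3 was incubated with compound (from 10 mM DMSO stocks) in the dark at room temperature for 15 min, 30 min, 2 h or 4 h. Linear-mode MALDI-TOF peak heights gave percent modification.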

pAKT in BT474 cells = assay: Cell-based pAKT HTRF assay in BT474 cells; details: BT474 cells, 4 hr incubation, read-out: pAKT inhibition IC50 in BT474 cells
In short: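 BT474 cells in DMEM/10% FBS were treated the day after seeding with a 9-point, 3-fold compound series from 3 μM (0.25% DMSO) for 4 hr. Lysates were mixed with d2 and Eu cryptate anti-pAKT antibodies and incubated 4-24 h at room temperature. HTRF was read with excitation at 320 nm and emission at 615 nm.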

[2] = 1 μM protein target, 1:5 protein to compound ratio (compounds 853-1279)
[3] = 3.33 μM protein target, 1:7.5 protein to compound ratio (compounds 1-852)

Sequence of Cys242 in human PIK3CA (157-299) (P42336 157-299): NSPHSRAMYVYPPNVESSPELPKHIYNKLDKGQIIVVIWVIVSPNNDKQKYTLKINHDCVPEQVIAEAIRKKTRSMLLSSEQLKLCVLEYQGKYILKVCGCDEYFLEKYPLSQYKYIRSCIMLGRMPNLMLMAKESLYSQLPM

C=CC(=O)N1CCc2ccc(-c3nc(-c4ccc5c(c4)CN(CCOC)CC5(F)F)c4ccsc4c3-c3c(F)cc(F)cc3OCCOC)cc2C1 [Compound 1277]
% of modification [1, 2]: D (percent of modification <25%) | IC50 (pAKT in BT474 cells; Compounds 1000-1279): > 1000 nM

C=CC(=O)N1CCn2nc(-c3nc(-c4ccc5c(c4)CN(C)CC5)c4c(c3-c3c(F)cc(F)cc3OCCOC)CCC4)cc2C1C (centres unmarked) [Compound 1244]
% of modification [1, 2]: A (percent of modification of PIK3CA protein ≥75%) | IC50 (pAKT in BT474 cells; Compounds 1000-1279): < 100 nM

C=CC(=O)N1CCc2ccc(-c3nc(-c4ccc5c(c4)CCN(C)C5)c4ccsc4c3-c3ccc(F)cc3OCCOC)cc2C1 [Compound 83]
% of modification [1, 3]: A (percent of modification of PIK3CA protein ≥75%) | IC50 (pAKT in BT474 cells; Compounds 10-999): < 100 nM

C=CC(=O)N1CCc2ncc(-c3nc(-c4cnc(C)o4)c4ccsc4c3-c3c(F)cc(F)cc3OC(C)C)cc2C1 [Compound 455]
% of modification [1, 3]: A (percent of modification of PIK3CA protein ≥75%) | IC50 (pAKT in BT474 cells; Compounds 10-999): < 100 nM

C=CC(=O)N1CCc2nc(-c3nc(-c4cnn(C)c4)c4ccsc4c3-c3ccc(F)cc3OCC3CCN(C)C(=O)C3)sc2C1 (centres unmarked) [Compound 221]
% of modification [1, 3]: A (percent of modification of PIK3CA protein ≥75%) | IC50 (pAKT in BT474 cells; Compounds 10-999): < 100 nM

C=CC(=O)N1CCn2nc(-c3nc(-c4ccc5c(c4)CCN(C)C5)c4ccsc4c3-c3c(F)cc(F)cc3OCCOC)cc2[C@H]1C [Compound 510]
% of modification [1, 3]: A (percent of modification of PIK3CA protein ≥75%) | IC50 (pAKT in BT474 cells; Compounds 10-999): < 100 nM

C=CC(=O)N1Cc2cc(-c3nc(-c4cnnc(C)c4)c4ccsc4c3-c3c(F)cc(F)cc3OCCO)nn2C(C)C1 (centres unmarked) [Compound 788]
% of modification [1, 3]: A (percent of modification of PIK3CA protein ≥75%) | IC50 (pAKT in BT474 cells; Compounds 10-999): < 100 nM

C=CC(=O)N1CCn2nc(-c3nc(-c4cnc5c(cnn5C)c4)c4ccsc4c3-c3c(F)cc(F)cc3OCCOC)cc2[C@@H]1C [Compound 888]
% of modification [1, 2]: A (percent of modification of PIK3CA protein ≥75%) | IC50 (pAKT in BT474 cells; Compounds 10-999): < 100 nM

C=CC(=O)N1C[C@H](C)n2nc(-c3nc(-c4ccc5ncn(C)c5c4)c4ccsc4c3-c3c(F)cc(F)cc3OCCOC)cc2[C@H]1C [Compound 604]
% of modification [1, 3]: A (percent of modification of PIK3CA protein ≥75%) | IC50 (pAKT in BT474 cells; Compounds 10-999): < 100 nM

C=CC(=O)N1C[C@H](C)n2nc(-c3nc(-c4cnn(C)c4)c4ccsc4c3-c3c(F)cc(F)cc3OCCOC)cc2[C@@H]1C [Compound 607]
% of modification [1, 3]: A (percent of modification of PIK3CA protein ≥75%) | IC50 (pAKT in BT474 cells; Compounds 10-999): < 100 nM

C=CC(=O)N1CCn2nc(-c3nc(-c4ccc(C5CCCN5C)cc4)c4ccsc4c3-c3c(F)cc(F)cc3OCCOC)cc2C1C (centres unmarked) [Compound 1224]
% of modification [1, 2]: A (percent of modification of PIK3CA protein ≥75%) | IC50 (pAKT in BT474 cells; Compounds 1000-1279): < 100 nM

C=CC(=O)N1CC(n2cc(-c3nc(-c4ccc5c(c4)CCNC5)c4ccsc4c3-c3ccc(F)cc3OC(F)F)cn2)C1 [Compound 136]
% of modification [1, 3]: A (percent of modification of PIK3CA protein ≥75%) | IC50 (pAKT in BT474 cells; Compounds 10-999): 100 to 1000 nM

C=CC(=O)N1Cc2cc(-c3nc(N4CCC(N(C)C)CC4)c4ccsc4c3-c3c(F)cc(F)cc3OCCOC)nn2CC1C (centres unmarked) [Compound 857]
% of modification [1, 2]: A (percent of modification of PIK3CA protein ≥75%) | IC50 (pAKT in BT474 cells; Compounds 10-999): < 100 nM

C=CC(=O)N1CCn2nc(-c3nc(-c4ccc(N5CCN(C)CC5)cc4)c4ccsc4c3-c3c(F)cc(F)cc3OCCOC)cc2C1C (centres unmarked) [Compound 1082]
% of modification [1, 2]: A (percent of modification of PIK3CA protein ≥75%) | IC50 (pAKT in BT474 cells; Compounds 1000-1279): < 100 nM

C=CC(=O)N1CCc2nc(-c3nc(-c4ccc5c(c4)CNC5=O)c4ccsc4c3-c3c(F)cc(F)cc3OCCOC)sc2C1 [Compound 364]
% of modification [1, 3]: A (percent of modification of PIK3CA protein ≥75%) | IC50 (pAKT in BT474 cells; Compounds 10-999): < 100 nM

C=C(F)C(=O)N1CCn2nc(-c3nc(-c4ccc(=O)n(C)c4)c4ccsc4c3-c3ccc(F)cc3OC(C)C)cc2C1 [Compound 276]
% of modification [1, 3]: A (percent of modification of PIK3CA protein ≥75%) | IC50 (pAKT in BT474 cells; Compounds 10-999): 100 to 1000 nM

C=CC(=O)N1CCn2nc(-c3nc(-c4cncc(CN(C)C)c4)c4ccsc4c3-c3c(F)cc(F)cc3OCCOC)cc2C1C (centres unmarked) [Compound 1141]
% of modification [1, 2]: A (percent of modification of PIK3CA protein ≥75%) | IC50 (pAKT in BT474 cells; Compounds 1000-1279): < 100 nM

C=CC(=O)N1Cc2cc(-c3nc(-c4cc(C)ncn4)c4ccsc4c3-c3c(F)cc(F)cc3OCCOC)nn2CC1C (centres unmarked) [Compound 850]
% of modification [1, 3]: A (percent of modification of PIK3CA protein ≥75%) | IC50 (pAKT in BT474 cells; Compounds 10-999): < 100 nM

C=CC(=O)N1CCc2nc(-c3nc(-c4ccc5nn(C)cc5c4)c4ccsc4c3-c3c(F)cc(F)cc3OCCOC)sc2C1 [Compound 947]
% of modification [1, 2]: A (percent of modification of PIK3CA protein ≥75%) | IC50 (pAKT in BT474 cells; Compounds 10-999): < 100 nM

C=CC(=O)N1Cc2cc(-c3nc(-c4cnn(CC(C)(C)O)c4)c4ccsc4c3-c3c(F)cc(F)cc3OC(C)C)nn2CC1C (centres unmarked) [Compound 490]
% of modification [1, 3]: A (percent of modification of PIK3CA protein ≥75%) | IC50 (pAKT in BT474 cells; Compounds 10-999): < 100 nM

C=CC(=O)N1CCn2nc(-c3nc(-c4ccc5c(c4)CCN(C(C)C)C5)c4ccsc4c3-c3ccc(F)cc3F)cc2C1 [Compound 250]
% of modification [1, 3]: A (percent of modification of PIK3CA protein ≥75%) | IC50 (pAKT in BT474 cells; Compounds 10-999): < 100 nM

C=CC(=O)N1CCc2nc(-c3nc(-c4ccc5c(c4)CCN(C)C5)c4ccsc4c3-c3c(F)cc(F)cc3OCCOC)sc2C1 (single isomer, unassigned) [Compound 450]
% of modification [1, 3]: A (percent of modification of PIK3CA protein ≥75%) | IC50 (pAKT in BT474 cells; Compounds 10-999): < 100 nM

C=CC(=O)N1CCn2nc(-c3nc(-c4cnc(C)nc4)c4ccsc4c3-c3c(F)cc(F)cc3OCC(C)O)cc2C1C (centres unmarked) [Compound 771]
% of modification [1, 3]: A (percent of modification of PIK3CA protein ≥75%) | IC50 (pAKT in BT474 cells; Compounds 10-999): < 100 nM

C=CC(=O)N1Cc2cc(-c3nc(-c4cn(C)cn4)c4ccsc4c3-c3c(F)cc(F)cc3OCC(C)O)nn2C(C)C1 (centres unmarked) [Compound 639]
% of modification [1, 3]: A (percent of modification of PIK3CA protein ≥75%) | IC50 (pAKT in BT474 cells; Compounds 10-999): < 100 nM

C=CC(=O)N1CCn2nc(-c3nc(-c4ccc5c(c4)CN(C)C5=O)c4ccsc4c3-c3c(F)cc(F)cc3OC[C@@H](C)O)cc2[C@H]1C [Compound 763]
% of modification [1, 3]: A (percent of modification of PIK3CA protein ≥75%) | IC50 (pAKT in BT474 cells; Compounds 10-999): < 100 nM

C=CC(=O)N1CCc2ncc(-c3nc(-c4ccc5c(c4)CNC(=O)C54CC4)c4ccsc4c3-c3c(F)cc(F)cc3OCCOC)cc2C1 [Compound 1192]
% of modification [1, 2]: A (percent of modification of PIK3CA protein ≥75%) | IC50 (pAKT in BT474 cells; Compounds 1000-1279): < 100 nM

C=CC(=O)N1CC(n2cc(-c3nc(C4=CCC5(CC4)CNC5)c4ccsc4c3-c3ccc(F)cc3OCCOC)cn2)C1 [Compound 145]
% of modification [1, 3]: A (percent of modification of PIK3CA protein ≥75%) | IC50 (pAKT in BT474 cells; Compounds 10-999): 1000 to 3000 nM

C=CC(=O)N1CCn2nc(-c3nc(-c4ccc5cn(C)nc5c4)c4ccsc4c3-c3c(F)cc(F)cc3OCCOC)cc2[C@H]1C [Compound 747]
% of modification [1, 3]: A (percent of modification of PIK3CA protein ≥75%) | IC50 (pAKT in BT474 cells; Compounds 10-999): < 100 nM

C=CC(=O)N1Cc2cc(-c3nc(-c4ccc5c(c4)C(=O)NC5)c4ccsc4c3-c3c(F)cc(F)cc3OC)nn2C[C@H]1C [Compound 837]
% of modification [1, 3]: A (percent of modification of PIK3CA protein ≥75%) | IC50 (pAKT in BT474 cells; Compounds 10-999): < 100 nM

C=CC(=O)N1CCn2nc(-c3nc(-c4ccc(CC(=O)NC)cc4)c4ccsc4c3-c3c(F)cc(F)cc3OCCOC)cc2C1C (centres unmarked) [Compound 1017]
% of modification [1, 2]: A (percent of modification of PIK3CA protein ≥75%) | IC50 (pAKT in BT474 cells; Compounds 1000-1279): < 100 nM

C=CC(=O)N1Cc2cc(-c3nc(-c4cnn(C)c4)c4ccsc4c3-c3c(F)cc(F)cc3OC[C@@H](C)O)nn2[C@@H](C)C1 [Compound 582]
% of modification [1, 3]: A (percent of modification of PIK3CA protein ≥75%) | IC50 (pAKT in BT474 cells; Compounds 10-999): < 100 nM

C=CC(=O)N1CCC(CO)(n2cc(-c3nc(-c4ccc5c(c4)CCNC5)c4ccsc4c3-c3ccc(F)cc3OC)cn2)CC1 [Compound 180, 1-[4-[4-[7-(4-fluoro-2-methoxy-phenyl)-4-(1,2,3,4-tetrahydroisoquinolin-6-yl)thieno[3,2-c]pyridin-6-yl]pyrazol-1-yl]-4-(hydroxymethyl)-1-piperidyl]prop-2-en-1-one]
% of modification [1, 3]: A (percent of modification of PIK3CA protein ≥75%) | IC50 (pAKT in BT474 cells; Homo sapiens, BT-474, Compounds 10-999): 100 to 1000 nM

C=CC(=O)N1CCn2nc(-c3nc(-c4ccc5c(c4)NC(=O)C5)c4ccsc4c3-c3c(F)cc(F)cc3OCCOC)cc2C1C (centres unmarked) [Compound 989]
% of modification [1, 2]: A (percent of modification of PIK3CA protein ≥75%) | IC50 (pAKT in BT474 cells; Compounds 10-999): < 100 nM

C=CC(=O)N1CCn2cc(-c3nc(-c4ccc(=O)n(C)c4)c4ccsc4c3-c3ccc(F)cc3OCC3CCN(C)C(=O)C3)nc2C1 (centres unmarked) [Compound 264]
% of modification [1, 3]: A (percent of modification of PIK3CA protein ≥75%) | IC50 (pAKT in BT474 cells; Compounds 10-999): > 3000 nM
